Measurements from patent US5393786A, “Method for treating inflammation, ischemia-induced cell damage and muscular dystrophy” (priority 1993, dated 1995).
Read-outs that look alike come from different tables or passages of the source.

What was measured:
[1] = test system: adjuvant-induced arthritis (uninjected hind paw); test: Developing Adjuvant-Induced Arthritis Test in Rats; format: in vivo, male Lewis-Wistar rats; conditions: po, 720 h, AUC days 16-30
[2] = test system: ischemia-induced cell damage caused by middle cerebral artery occlusion; test: Middle Cerebral Artery Occlusion Stroke Model; format: in vivo, male spontaneously hypertensive rats; conditions: for Infarct Volume: saline
Text: Strokes were also produced in rats by occluding the middle cerebral artery according to the following procedure. Male spontaneously hypertensive rats were housed in groups of three to four per cage and allowed free access to food and water. The animals were anesthetized with a mixture of 2.5% halothane and air. The anesthetized rats then underwent the following surgical procedure.
A femoral artery of each rat was cannulated to monitor mean arterial pressure and a jugular cannula was inserted in order to provide a means for administering test compounds intravenously. […] The ventral neck area and the area behind each animal's right eye were shaved and washed with antiseptic solution. The right common carotid artery was dissected free of connective tissue through a midline cervical incision and the vessel permanently occluded with a silk ligature. Next, a 1 cm incision perpendicular to, and bisecting a line between the lateral canthus of the right eye and the external auditory canal, was made to expose the temporalis muscle which was retracted and partially excised. Using a dissecting microscope, the right middle cerebral artery was exposed through a 2 mm burr hole drilled 2-3 mm rostral to the fusion of the zygomatic arch with a squamosal bone. Drilling was done under a continuous drip of a 0.9% saline solution to prevent heat injury of the underlying cortex. The dura was cut and retracted to expose the middle cerebral artery.
This artery was occluded in two ways. The first method of occlusion involved permanent cauterization of the artery so that blood flow through the artery was completely eliminated. The second method of occulsion was only temporary (lasting two hours) and involved clamping the artery with microaneurism clips. Test compounds were administered at various times before, during and after occlusion. Each animal's body temperature was maintained at 37° C. during testing using a rectal thermometer connected to a heating pad.
Twenty-four hours after tandem middle cerbral carotid artery occlusion, the test animals were sacrificed and their brains removed and frozen over dry ice. Coronal sections 20 microns thick were cut at half millimeter intervals in a cryostat at -20° C. and dried on a hot plate at 60° C. The sections were then stained with cresyl violet. […] A total infarct volume was then calculated using a computer program that summed all sectional areas measured multiplied by the interval thickness. The lower the infarcted volume obtained, the lower the amount of cell damage caused by the stroke. The level of significance was obtained using Student's "t-test".

[3] = test system: hippocampal CA1 pyramidal cell layer; test: Stroke model in rats (four-vessel occlusion), hippocampal CA1 damage
Text: (§1) Strokes were produced in rats by occluding the four arteries that supply blood to the brain according to the following procedure. Male Wistar rats (250-280 g; Hilltop Laboratories, Scottsdale, Pa.) were anesthetized with metofane and placed into a stereotaxic instrument. A longitudinal incisio was made on the dorsal surface of the neck. The neck muscles were reflected to expose the dorsal surface of the spinal column. The two vertebral arteries were exposed where they pass through the first cervica vertebra. Both arteries were permanently occluded by the application of electrocautery. After coagulation of the vertebral arteries, the rat was removed from the stereotaxic instrument and the surgical wound was sutured. Two longitudinal incisions were then made on the ventral surface of the neck. The two common carotid arteries were exposed and dissected free from surrounding nerves and connective tissue. Reversible atraumatic clamps, fabricated mainly from silicon rubber tubing, were placed around each carotid artery in a manner such that the vessels were not traumatize or occluded. The clamps were externalized through the ventral neck incision. A suture was also placed through the neck dorsal to the carotids, esophagus and trachea, and tied loosely behind the neck. This suture is tied tightly at the time ischemia is induced in order to restrict collateral circulation reaching the brain through the dorsal muscles of the neck. The surgical wounds were then closed. After the surgery, the rats were allowed to recover for 24 hours (free access to water, but no food during this period).
(§2) On the day of testing, test compounds were administered at various times before stroke induction. Strokes (cerebral ischemia) were induced by tightening the clamps around the carotids, thereby stopping blood flow in the carotids. Rats in which strokes were successfully produced lost the righting reflex and became unresponsive to stimuli. Collateral circulatio through the dorsal neck muscles was then restricted by tightening the previously implanted suture. […] After 30 minutes of ischemia, the carotid clamps wer released, the neck suture was loosened, and blood flow to the brain was restored. Following the period of ischemia, the rats were allowed free access to food and water. Rats were again treated with test compounds at various times after the stroke. On the third day after the stroke the animals were sacrificed and their brains were removed, frozen and sectioned through the striatum and hippocampus. Sections were mounted on glass slides and stained with hematoxylin and eosin.
(§3) Two of the areas of the brain that are most susceptible to ischemia induce damage, both in rats and humans, are the CA1 pyramidal cell layer of the hippocampus and the striatal cell layer of the striatum. In animals that remain unresponsive for the 30 minute period of ischemia, the CA1 pyramidal cell layer and the striatal cell layer are completely destroyed. These layers of cells were examined microscopically in histological sections prepared from the hippocampus and striatum. Brain damage was rated according to the following scale:
(§4) 0=no damage, completely intact cell layer
(§5) 1=mild damage, onethird of cell layer dead
(§6) 2=moderate damage, twothirds of cell layer dead
(§7) 3=severe damage, complete destruction of cell layer
(§8) Damage in 10-12 sections from each brain was assessed in order to obtain a accurate estimate of damage. An average damage score was calculated for each treatment group. Scores from treated groups were compared statistically with scores from control groups which received only the vehicle used to suspend the compounds. The level of significance was determined using the Mann WhitneyU-test.

[4] = test system: striatal cell layer of the striatum; test: Stroke model in rats (four-vessel occlusion), striatal damage; format: in vivo, male Wistar rats
Text: as §1, §2, §3, §4, §5, §6, §7, §8

dystrophic mice (dy/dy) = test: Muscular Dystrophy Animal Model, life span of dystrophic mice; format: in vivo; conditions: 0.03 wgt % of compound in diet; control 73 days
Protocol: Dystrophic mice (dy/dy) were obtained from Jackson Laboratories after weaning (approximately 21 days) and treatment with the compound shown in Table IV was begun at the first sign of dystrophy. The compound was administered in the diet and lifespan was measured during the course of treatment. The food and water sources were located in different parts of the cage requiring the animals to walk from the food source to the water source to survive.

[5] = Chemical Abstracts, 74, 96312e (1971); cited from earlier work
[6] = Chemical Abstracts, 78, 132326f (1973); cited from earlier work
[7] = 50 mg/kg rat weight × 29, p.o. once daily, read-out: % Inhibition of Uninjected Paw Volume Inflammation, Days 16-30

## CNCCc1cc(C(C)(C)C)c(O)c(C(C)(C)C)c1.Cl [4-[2-(methylamino)ethyl]-2,6-bis(1,1-dimethylethyl)phenol hydrochloride]
[1]; Rattus norvegicus, read-out: % Inhibition of Uninjected Paw Volume Inflammation, Days 16-30, 25 mg/kg rat weight × 29, p.o. once daily
  inhibition in vivo at 25 mg/kg: 72.2%
[2]; dose of 50/10 i.v., permanent occlusion
  hypothermia (footnote +++): severe hypothermia
[2]; permanent occlusion, 30/5 mg/kg i.v. (per hour), time c, control 129 ± 14
  Infarct Volume: 130 ± 16 (mm)^3

## CN(C)Cc1cc(C(C)(C)C)c(O)c(C(C)(C)C)c1.Cl [4-[(dimethylamino)methyl]-2,6-bis(1,1-dimethylethyl)phenol hydrochloride]
[1]; Rattus norvegicus, read-out: % Inhibition of Uninjected Paw Volume Inflammation, Days 16-30, 50 mg/kg rat weight × 29, p.o. once daily
  inhibition in vivo at 50 mg/kg: 94.8%
[3]; scale 0 (no damage)-3 (severe), mean ± SE, 50 mg/kg orally, 2% acacia, time a (15 min pre, 4 h and 24 h postischemia), control 2.7 ± 0.2
  Damage Score, Hippocampus: 1.7 ± 0.3
[2]; permanent occlusion, 50/10 mg/kg i.v. (per hour), time c (15 min before occlusion, then 24 h), control 136 ± 7
  Infarct Volume: 91 ± 12 (mm)^3
[2]; temporary occlusion, 50/50/10 mg/kg i.p./i.p./i.v. (per hour), time a (15 min before clamping, 15 min before clamp removal, then 24 h), control 114.4 ± 14.1
  Infarct Volume: 47.9 ± 3.4 (mm)^3
[2]; temporary occlusion, 50/50/10 mg/kg i.p./i.p./i.v. (per hour), time b (15 min after clamping, 15 min before clamp removal, then 24 h), control 101.7 ± 9.1
  Infarct Volume: 35.5 ± 5.3 (mm)^3
[2]; temporary occlusion, 50/50/10 mg/kg i.p./i.p./i.v. (per hour), time b, rats fasted overnight, control 61.9 ± 7.9
  Infarct Volume: 23.1 ± 4.9 (mm)^3
[4]; scale 0 (no damage)-3 (severe), mean ± SE, 50 mg/kg orally, 2% acacia, time a (15 min pre, 4 h and 24 h postischemia), control 2.6 ± 0.2
  Damage Score, Striatum: 1.1 ± 0.2

## CN(C)Cc1cc(C(C)(C)C)c(O)c(C(C)(C)C)c1 [4-[(dimethylamino)methyl]-2,6-bis(1,1-dimethylethyl)phenol]
[1]; [7]
  inhibition in vivo at 50 mg/kg: 59.7%
[3]; scale 0-3, mean ± SE, 100 mg/kg orally, 2% acacia, time b (2 h pre, 24 h postischemia), control 2.8 ± 0.2
  Damage Score, Hippocampus: 0.8 ± 0.4
Dystrophic mice (dy/dy)
  Average Life Span: 120 days
[4]; scale 0-3, mean ± SE, 100 mg/kg orally, 2% acacia, time b (2 h pre, 24 h postischemia), control 2.5 ± 0.5
  Damage Score, Striatum: 0.8 ± 0.3

## CCCN(CCC)Cc1cc(C(C)(C)C)c(O)c(C(C)(C)C)c1.Cl [4-[(dipropylamino)methyl]-2,6-bis(1,1-dimethylethyl)phenol hydrochloride]
[1]; [7]
  inhibition in vivo at 50 mg/kg: 64.4%
[3]; scale 0-3, mean ± SE, 100 mg/kg orally, 2% acacia, time c (30 min pre, 4 h and 24 h postischemia), control 2.5 ± 0.3
  Damage Score, Hippocampus: 1.0 ± 0.4
[2]; temporary occlusion, 20/5 mg/kg i.v. (per hour), time d, control 123 ± 14
  Infarct Volume: 143 ± 12 (mm)^3
[4]; scale 0-3, mean ± SE, 100 mg/kg orally, 2% acacia, time c (30 min pre, 4 h and 24 h postischemia), control 1.4 ± 0.3
  Damage Score, Striatum: 1.2 ± 0.4

## CCNCc1cc(C(C)(C)C)c(O)c(C(C)(C)C)c1.Cl [4-[(ethylamino)methyl]-2,6-bis(1,1-dimethylethyl)phenol hydrochloride]
[1]; 5 mg/kg rat weight × 29, p.o. once daily, read-out: % Inhibition of Uninjected Paw Volume Inflammation, Days 16-30
  inhibition in vivo at 5 mg/kg: 27.9%
[1]; 10 mg/kg rat weight × 29, p.o. once daily, read-out: % Inhibition of Uninjected Paw Volume Inflammation, Days 16-30
  inhibition in vivo at 10 mg/kg: 19.6%
[1]; 20 mg/kg rat weight × 29, p.o. once daily, read-out: % Inhibition of Uninjected Paw Volume Inflammation, Days 16-30
  inhibition in vivo at 20 mg/kg: 50.8%
[1]; 25 mg/kg rat weight × 29, p.o. once daily, read-out: % Inhibition of Uninjected Paw Volume Inflammation, Days 16-30
  inhibition in vivo at 25 mg/kg: 96.5%
[3]; scale 0-3, mean ± SE, 20 mg/kg / 5 mg/kg per hour i.v., 10% DMSO/TWEEN 80/NaCl, time d (immediately after ischemia, then continuous 24 h), control 2.83 ± 0.12
  Damage Score, Hippocampus: 1.23 ± 0.47
[2]; permanent occlusion, 20/5 mg/kg i.v. (per hour), time c, control 172 ± 19
  Infarct Volume: 122 ± 12 (mm)^3
[2]; temporary occlusion, 10/5 mg/kg i.v., time f (one hour after clamping, then upon clamp removal for 24 h), control 128 ± 17
  Infarct Volume: 74 ± 8 (mm)^3
[4]; scale 0-3, mean ± SE, 20 mg/kg / 5 mg/kg per hour i.v., 10% DMSO/TWEEN 80/NaCl, time d (immediately after ischemia, then continuous 24 h), control 2.37 ± 0.28
  Damage Score, Striatum: 1.20 ± 0.42

## CNCc1cc(C(C)(C)C)c(O)c(C(C)(C)C)c1.Cl [4-[(methylamino)methyl]-2,6-bis(1,1-dimethylethyl)phenol hydrochloride]
[1]; [7]
  inhibition in vivo at 50 mg/kg: 119%
[3]; scale 0-3, mean ± SE, 10 mg/kg / 10 mg/kg per hour i.v., saline, time d (immediately after ischemia, then continuous 24 h), control 2.4 ± 0.3
  Damage Score, Hippocampus: 0.75 ± 0.3
[3]; scale 0-3, mean ± SE, 50 mg/kg / 10 mg/kg per hour i.v., saline, time d (immediately after ischemia, then continuous 24 h), control 2.6 ± 0.3
  Damage Score, Hippocampus: 0.66 ± 0.3
[2]; permanent occlusion, 50 mg/kg i.v. single dose, time e (10 min before occlusion), control 140 ± 23
  Infarct Volume: 123 ± 18 (mm)^3
[2]; permanent occlusion, 10/10 mg/kg i.v. (per hour), time c, control 145 ± 12
  Infarct Volume: 128 ± 11 (mm)^3
[2]; permanent occlusion, 20/5 mg/kg i.v. (per hour), time c, control 133 ± 16
  Infarct Volume: 112 ± 7 (mm)^3
[2]; permanent occlusion, 20/10 mg/kg i.v. (per hour), time c, control 148 ± 9
  Infarct Volume: 90 ± 18 (mm)^3
[2]; permanent occlusion, 50/10 mg/kg i.v. (per hour), time c, control 142 ± 7
  Infarct Volume: 76 ± 12 (mm)^3
[4]; scale 0-3, mean ± SE, 10 mg/kg / 10 mg/kg per hour i.v., saline, time d (immediately after ischemia, then continuous 24 h), control 2.6 ± 0.3
  Damage Score, Striatum: 1.97 ± 0.4
[4]; scale 0-3, mean ± SE, 50 mg/kg / 10 mg/kg per hour i.v., saline, time d (immediately after ischemia, then continuous 24 h), control 2.3 ± 0.4
  Damage Score, Striatum: 1.13 ± 0.4
[5]
  antioxidative activity of liver lipids: increases the antioxidative activity of liver lipids
  liver tissue regeneration following a partial hepatectomy: increasing liver tissue regeneration following a partial hepatectomy

## CNCc1cc(C(C)(C)C)c(O)c(C(C)(C)C)c1 [N-methyl-3,5-di-t-butyl-4-hydroxybenzylamine]
[6]
  rate of blood deoxygenation: increase the rate of blood deoxygenation
